Entries after “also recorded” stand apart in the source; their conditions may differ. Where two headings read alike, the source gives them in different places.
Experiments:
zebrafish embryos = assay: Zebrafish embryo toxicity screening; type: in vivo; details: for observable toxicity / development of treated zebrafish embryos: up to 3 days post treatment
Excerpt: Wild-type zebrafish strain AB/Tuebingen TAB-14(AB/TuebingenTAB-14) (Catalog ID: ZL1438) were obtained from zebrafish international resource center and grown in an animal facility at the Department of Zoology, King Saud University, Riyadh, Kingdom of Saudi Arabia. The fish were maintained and bred following guidelines of the Institutional Animal Care and Use Committee (ICUAC) and zebrafish book. The fertilized embryos were obtained by natural pairwise breeding of adult fish. The fertilized embryos were sorted, dead embryos were removed, and synchronous stage embryos were used for screening.
A stock solution of 25 mM was made by dissolving the compounds in molecular biology grade DMSO (Sigma Aldrich, St. Louis, MI, USA). Zebrafish embryos were exposed to serial dilution (1, 5, 15, 45, 150, and 300 µM) of each compound. The embryos were remained exposed to the compounds for 3 days, and the embryos medium containing the compounds were changed every day. The response of the embryos toward mortality, and embryonic toxicity (teratogenicity) was monitored once after 12 h and then after every 24 h until the end of the experiment. The experiment was repeated at least three times (triplicate biological repeats) by using a new batch of embryos every time. LC50 for zebrafish embryonic toxicity was calculated by using an updated Probit analysis by Finney method.

A549 (lung) cancer cells = assay: MTT antiproliferative assay, A549 lung carcinoma; type: cell-based, human; details: 48 h incubation, read-out: IC50 for the Different Carcinoma Cell Lines, A549 (Lung)
Description: (§1) The antiproliferative activity of compounds was measured using MTT (3-(4, 5-dimethylthiazol-2-yl)-2,5-diphenyltetrazolium bromide) assay. A549 (lung), HepG2 (liver), and MCF-7 (breast) cancer cells were purchased from the American Type Cell Collection (ATCC, Manassas, VA, USA). The cells were seeded at 5 × 10^4 cells/well (in 100 μL of DMEM) in 96-well microplates. After 24 h incubation at 37 °C, serial dilution (15–250 µM) of each compound was added and incubated for 48 h. Thereafter, 10 μL of the MTT solution (5 mg/mL) was added to each well. After 4 h incubation with the MTT solution, a volume of 100 μL of acidified isopropanol was added to solubilize the formazan product and incubated on a shaker for a further 10 min. Reduced MTT was assayed at 570 nm using a microplate reader (BioTek, Winoosky, VT, USA). Control groups received the same amount of DMSO (0.1%), untreated cells were used as a negative control, whereas cells treated with doxorubicin were used as a positive control. The IC50 (concentration that caused more than 50% inhibition of proliferation) was calculated from a dose-dependent curve. The cell viability percent was calculated = mean absorbance of treated sample/mean absorbance of control ×100.

[1] = tested on: MCF-7 (breast) cancer cells; assay: MTT antiproliferative assay, MCF-7 breast carcinoma; type: cell-based, human; details: 48 h incubation, MCF-7 cells, read-out: IC50 for the Different Carcinoma Cell Lines, MCF-7 (Breast)
Description: as §1

[2] = tested on: HepG2 (liver) cancer cells; assay: MTT antiproliferative assay, HepG2 liver carcinoma; type: cell-based, human; details: 48 h incubation, read-out: IC50 for the Different Carcinoma Cell Lines, HepG2 (Liver)
Description: as §1

## Cc1c2c(cc3c1[C@@H](O)COC3=O)CC(C)(C)C2 [Compound 1, asperorlactone]
Zebrafish embryos; more than 200 µM compound, after 2 days post treatment
  toxicity in zebrafish embryos: cardiac toxicity (cardiac edema and cardiac hypertrophy
A549 (lung) cancer cells
  IC50: 72.7 ± 1.1 µM
A549 (lung) cancer cells; Homo sapiens, A549, 48 h
  IC50: < 100 µM
[1]
  IC50: 106 ± 4.2 µM
[1]; Homo sapiens, MCF7, 48 h
  IC50: < 100 µM
[2]
  IC50: 86.6 ± 3.2 µM
[2]; Homo sapiens, HepG2, 48 h
  IC50: < 100 µM

## Cc1c2c(cc3c1CCOC3=O)C[C@](C)(CO)C2 [Compound 2, echinolactone D]
Zebrafish embryos
  observable toxicity / development of treated zebrafish embryos: did not exhibit any observable toxicity; also recorded: developed normally
A549 (lung) cancer cells; Homo sapiens, A549, 48 h
  IC50: 55.7 ± 2.5 µM
[1]; Homo sapiens, MCF7, 48 h
  IC50: 128 ± 2.8 µM
[2]; Homo sapiens, HepG2, 48 h
  IC50: 148 ± 5.6 µM

## O=c1cc(CO)c(O)co1 [Compound 3, 4-(hydroxymethyl)-5-hydroxy-2H-pyran-2-one]
Zebrafish embryos
  observable toxicity / development of treated zebrafish embryos: did not exhibit any observable toxicity; also recorded: developed normally
A549 (lung) cancer cells; Homo sapiens, A549, 48 h
  IC50: 208 ± 6.8 µM
[1]; Homo sapiens, MCF7, 48 h
  IC50: 225 ± 5.1 µM
[2]; Homo sapiens, HepG2, 48 h
  IC50: 220 ± 3.6 µM

## CC(=O)OCc1cc(=O)occ1O [Compound 4, (5-hydroxy-2-oxo-2H-pyran-4-yl)methyl acetate]
Zebrafish embryos; after 24 h post treatment, initial development normal
  death of treated embryos: 100%
Zebrafish embryos
  observable toxicity / development of treated zebrafish embryos: found dead on day 2
A549 (lung) cancer cells; Homo sapiens, A549, 48 h
  IC50: 89.4 ± 2.3 µM
[1]; Homo sapiens, MCF7, 48 h
  IC50: 171 ± 4.5 µM
[2]; Homo sapiens, HepG2, 48 h
  IC50: 127 ± 6.4 µM

## O=Cc1ccc(O)cc1 [Compound 5, 4-hydroxybenzaldehyde]
Zebrafish embryos
  observable toxicity / development of treated zebrafish embryos: did not exhibit any observable toxicity; also recorded: developed normally
A549 (lung) cancer cells; Homo sapiens, A549, 48 h
  IC50: 97.5 ± 2.6 µM
[1]; Homo sapiens, MCF7, 48 h
  IC50: 158 ± 5.5 µM
[2]; Homo sapiens, HepG2, 48 h
  IC50: 243 ± 6.4 µM

## COc1cccc2c1C(=O)c1c(O)c3c(c(O)c1C2=O)C[C@@](O)(C(=O)CO)C[C@@H]3O[C@H]1C[C@H](N)[C@H](O)[C@H](C)O1 [Doxorubicin, doxorubicin, reference compound]
A549 (lung) cancer cells; Homo sapiens, A549, 48 h
  IC50: 2.1 ± 0.08 µM
[1]; Homo sapiens, MCF7, 48 h
  IC50: 1.9 ± 0.05 µM
[2]; Homo sapiens, HepG2, 48 h
  IC50: 2.2 ± 0.15 µM

— article PMC8230370, “Antiproliferative Illudalane Sesquiterpenes from the Marine Sediment Ascomycete Aspergillus oryzae” (Marine Drugs, 2021)
